Where a name gives a salt, the structure may show the parent alone. Blank lines part the entries; values can stand above or below the compound they belong to.
Columns and labels:
Format in all cases: biochemical
PKA = target: T1, PKA (Homo sapiens, UniProt P17612); test: Protein Kinase A assay (SPA); conditions: human recombinant PKA, read-out: IC50, inhibition of PKA
T1 construct: purchased Panvera
Protocol: (§1) The compounds of formula 1 are tested for their activity on different protein kinases and PKC isoforms using a scintillation proximity assay (SPA, Amersham International plc). ^33P-labeled peptides are captured onto streptavidin coated yttrium silicate SPA beads. β-particles, emitted from the captured ^33P-labeled substrate in close proximity to the bead are able to excite the scintillant, resulting in the generation of quantifiable light. The assay is performed in a 96-well polystyrene microtiterplate (1450-514, Isoplates, Wallac, Turku, Finland). The reaction mixture (50 μl) contains 10 μl of the test compound together with 10 μl of the relevant kinase, diluted in the relevant dilution buffer, 5 μl of 10 μM phorbol myristate acetate (PMA) in H2O, 5 μl of 1.6 mM phosphatidylserine (Sigma-Aldrich Chemie GmbH, Stein-heim, Germany) in 20 mM Tris/HCL buffer pH 7.4, 5 μl of 0.3% BSA in H2O, 5 μl of 30 μM relevant substrate and 10 μl of 5 μM ATP and 0.1 μCi of ^33P-ATP (Amersham, Freiburg, Germany) in 200 mM Tris/HCL pH 7.5 and 200 mM MgCl2. Incubation is performed for 40 min at room temperature (RT) without shaking. Reaction is stopped by adding 150 μl of cold stop solution containing 10 mM ATP, 5 mM EGTA pH 7.5, 0.1% Triton X-100 and 0.2 mg streptavidin coated yttrium silicate SPA beads (Amersham, RPNQ 0012). The sealed plate is incubated for 60 min at RT. Thereafter the MTP is counted in a Microbeta Jet (Wallac). IC50 measurement is performed on a routine basis by incubation a serial dilution of inhibitor at concentrations ranging between 0.01 and 100 μM according to the method described above. Background values are the signals of the reaction mixture without addition of the relevant kinase and are subtracted from all values. 100% values are the signals of the reaction mixture without addition of inhibitors.
Human recombinant PKA was obtained from Panvera and is used in a scintillation proximity assay described in Section A.1. […] Thereafter the MTP is counted in a Microbeta Jet (Wallac). […] IC50 values are calculated from the graph by sigmoidal curve fitting.

PKCι = target: T2, PKCι (Homo sapiens, UniProt P41743); test: Protein Kinase C ι assay (SPA); conditions: human recombinant PKCι from Sf21 insect cells, absence of PMA and phosphatidylserine, read-out: IC50, inhibition of PKC ι
T2 construct: made in house; host or cells: Sf21 insect cells
T2 sequence (P41743 1-596): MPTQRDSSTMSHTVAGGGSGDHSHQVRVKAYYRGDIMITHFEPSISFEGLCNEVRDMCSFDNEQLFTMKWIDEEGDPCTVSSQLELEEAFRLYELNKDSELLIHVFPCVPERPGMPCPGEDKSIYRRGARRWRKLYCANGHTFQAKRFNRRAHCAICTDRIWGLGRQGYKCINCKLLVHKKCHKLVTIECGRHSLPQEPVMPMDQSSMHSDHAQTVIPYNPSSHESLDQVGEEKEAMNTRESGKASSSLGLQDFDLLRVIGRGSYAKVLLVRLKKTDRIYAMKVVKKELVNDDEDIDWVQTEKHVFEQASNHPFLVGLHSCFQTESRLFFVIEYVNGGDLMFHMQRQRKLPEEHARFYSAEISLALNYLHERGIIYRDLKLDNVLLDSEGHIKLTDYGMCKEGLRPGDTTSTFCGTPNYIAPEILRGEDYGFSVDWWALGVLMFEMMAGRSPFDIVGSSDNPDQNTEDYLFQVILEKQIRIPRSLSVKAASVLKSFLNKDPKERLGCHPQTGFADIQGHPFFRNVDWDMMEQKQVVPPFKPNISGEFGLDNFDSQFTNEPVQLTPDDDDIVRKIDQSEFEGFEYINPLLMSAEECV
Protocol: as §1
(§2) Dependent on the efficacy of the inhibitors In the various test systems, corresponding IC50 values are calculated from concentration-inhibition curves by nonlinear regression analysis using the program GraphPad Prism (GraphPad Software Inc., San Diego, Calif.). […]

PKCζ = target: T3, PKCζ (Homo sapiens, UniProt Q05513); test: Protein Kinase C ζ assay (SPA); conditions: human recombinant PKCζ, absence of PMA and phosphatidylserine, read-out: IC50, inhibition of PKC ζ
T3 construct: purchased Panvera
T3 sequence (Q05513 1-592): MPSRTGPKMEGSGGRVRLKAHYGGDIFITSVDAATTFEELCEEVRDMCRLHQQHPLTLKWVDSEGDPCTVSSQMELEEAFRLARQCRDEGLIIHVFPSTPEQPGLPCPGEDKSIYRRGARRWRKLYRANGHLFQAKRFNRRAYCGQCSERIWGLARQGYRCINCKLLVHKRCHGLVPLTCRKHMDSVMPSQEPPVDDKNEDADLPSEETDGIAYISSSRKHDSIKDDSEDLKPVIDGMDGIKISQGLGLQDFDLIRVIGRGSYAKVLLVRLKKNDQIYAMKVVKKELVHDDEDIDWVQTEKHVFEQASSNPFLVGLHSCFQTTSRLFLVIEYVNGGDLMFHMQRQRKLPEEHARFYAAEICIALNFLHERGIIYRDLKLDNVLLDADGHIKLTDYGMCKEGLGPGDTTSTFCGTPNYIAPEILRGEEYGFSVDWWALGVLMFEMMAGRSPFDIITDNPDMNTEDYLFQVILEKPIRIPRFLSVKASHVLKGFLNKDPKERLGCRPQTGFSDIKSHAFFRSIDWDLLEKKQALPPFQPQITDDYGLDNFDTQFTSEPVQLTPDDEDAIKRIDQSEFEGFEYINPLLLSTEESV
Protocol: (§3) The compounds of formula 1 are tested for their activity on different protein kinases and PKC isoforms using a scintillation proximity assay (SPA, Amersham International plc). ^33P-labeled peptides are captured onto streptavidin coated yttrium silicate SPA beads. β-particles, emitted from the captured ^33P-labeled substrate in close proximity to the bead are able to excite the scintillant, resulting in the generation of quantifiable light. The assay is performed in a 96-well polystyrene microtiterplate (1450-514, Isoplates, Wallac, Turku, Finland). The reaction mixture (50 μl) contains 10 μl of the test compound together with 10 μl of the relevant kinase, diluted in the relevant dilution buffer, 5 μl of 10 μM phorbol myristate acetate (PMA) in H2O, 5 μl of 1.6 mM phosphatidylserine (Sigma-Aldrich Chemie GmbH, Stein-heim, Germany) in 20 mM Tris/HCL buffer pH 7.4, 5 μl of 0.3% BSA in H2O, 5 μl of 30 μM relevant substrate and 10 μl of 5 μM ATP and 0.1 μCi of ^33P-ATP (Amersham, Freiburg, Germany) in 200 mM Tris/HCL pH 7.5 and 200 mM MgCl2. […] Thereafter the MTP is counted in a Microbeta Jet (Wallac). […]
as §2

PKCε = target: T4, PKCε (Homo sapiens, UniProt Q02156); test: Protein Kinase C ε assay (SPA); conditions: human recombinant PKCε, PKCη pseudosubstrate, read-out: IC50, inhibition of PKC ε
T4 construct: purchased Panvera
T4 sequence (Q02156 1-737): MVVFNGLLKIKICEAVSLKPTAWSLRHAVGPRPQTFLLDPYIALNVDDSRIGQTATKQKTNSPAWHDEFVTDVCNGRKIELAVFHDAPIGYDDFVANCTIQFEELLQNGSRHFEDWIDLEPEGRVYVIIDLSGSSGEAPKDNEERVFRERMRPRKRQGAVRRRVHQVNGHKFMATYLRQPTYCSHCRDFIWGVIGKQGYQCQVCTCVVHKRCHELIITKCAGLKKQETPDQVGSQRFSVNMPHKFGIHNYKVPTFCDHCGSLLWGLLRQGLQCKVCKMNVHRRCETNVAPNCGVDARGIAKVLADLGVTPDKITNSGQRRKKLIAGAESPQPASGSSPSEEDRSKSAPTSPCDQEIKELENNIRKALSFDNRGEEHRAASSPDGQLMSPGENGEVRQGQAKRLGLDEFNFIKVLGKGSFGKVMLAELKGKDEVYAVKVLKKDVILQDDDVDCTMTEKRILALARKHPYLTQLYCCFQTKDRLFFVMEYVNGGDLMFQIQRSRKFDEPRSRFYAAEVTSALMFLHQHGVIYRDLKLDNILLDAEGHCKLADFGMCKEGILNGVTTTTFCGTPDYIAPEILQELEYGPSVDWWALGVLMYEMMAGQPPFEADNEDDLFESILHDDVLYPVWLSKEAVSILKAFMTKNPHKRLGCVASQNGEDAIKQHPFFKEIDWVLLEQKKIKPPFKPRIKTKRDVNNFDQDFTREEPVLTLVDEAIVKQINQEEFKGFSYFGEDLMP
Protocol: as §1
Dependent on the efficacy of the inhibitors In the various test systems, corresponding IC50 values are calculated from concentration-inhibition curves by nonlinear regression analysis using the program GraphPad Prism (GraphPad Software Inc., San Diego, Calif.).
Human recombinant PKCε was obtained from Panvera and is used under the assay conditions as described above (Section A.1). The enzyme is diluted in PKC dilution buffer containing 1 mM Hepes pH 7.4, 0.5 mM DTT and 0.001% Triton X-100. The kinase reaction is performed with the biotinylated PKCη pseudosubstrate solved in H2O.

Lck = target: T5, Lck (Homo sapiens, UniProt P06239); test: Lck (p56Lck) assay (SPA); conditions: human recombinant Lck, read-out: IC50, inhibition of Lck
T5 construct: purchased Upstate (Dundee, UK)
Protocol: as §3
Human recombinant Lck was obtained from Upstate (Dundee, UK) and is used in a scintillation proximity assay described in Section A.1. […] Thereafter the MTP is counted in a Microbeta Jet (Wallac). […] IC50 values are calculated from the graph by sigmoidal curve fitting. […]

T5 sequence (P06239 whole entry): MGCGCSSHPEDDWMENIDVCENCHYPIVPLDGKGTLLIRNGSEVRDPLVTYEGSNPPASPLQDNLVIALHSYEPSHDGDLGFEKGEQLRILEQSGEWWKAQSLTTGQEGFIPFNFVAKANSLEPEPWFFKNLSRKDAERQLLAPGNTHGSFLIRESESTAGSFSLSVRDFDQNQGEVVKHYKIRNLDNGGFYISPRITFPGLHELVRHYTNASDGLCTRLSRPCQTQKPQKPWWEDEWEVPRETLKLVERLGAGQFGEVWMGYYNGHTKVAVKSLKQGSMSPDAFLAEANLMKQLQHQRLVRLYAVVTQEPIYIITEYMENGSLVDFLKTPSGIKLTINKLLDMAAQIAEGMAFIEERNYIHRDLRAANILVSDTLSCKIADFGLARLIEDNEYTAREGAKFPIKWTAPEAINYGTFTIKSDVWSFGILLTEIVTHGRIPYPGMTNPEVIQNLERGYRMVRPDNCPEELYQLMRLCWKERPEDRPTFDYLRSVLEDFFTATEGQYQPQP

IC50 (PKA): 3 to 16 µM
SMILES: O=S(=O)(Nc1ccc(Nc2cc(-c3ccc4[nH]ccc4c3)ncn2)cc1)c1cccc(F)c1 [Example 121, 3-Fluoro-N-{4-[6-(1H-indol-5-yl)-pyrimidin-4-ylamino]-phenyl}-benzenesulfonamide]

IC50 (PKCι): 7 to 34 µM
SMILES: CN1CCN(CCCn2ccc3cc(-c4cc(Nc5ccc(NS(=O)(=O)c6ccc(F)c(Cl)c6)cc5)ncn4)ccc32)CC1 [Example 162, 3-Chloro-4-fluoro-N-[4-(6-{1-[3-(4-methyl-piperazin-1-yl)-propyl]-1H-indol-5-yl}-pyrimidin-4-ylamino)-phenyl]-benzenesulfonamide formic acid salt]

IC50 (PKA): 3 to 16 µM
SMILES: O=S(=O)(Nc1ccc(Nc2cc(-c3cccc4ccccc34)ncn2)cc1)c1ccc(Cl)c(Cl)c1 [Example 10, 3,4-Dichloro-N-[4-(6-naphthalen-1-yl-pyrimidin-4-ylamino)-phenyl]-benzenesulfonamide]

IC50 (PKCζ): 15 to 25 µM
SMILES: O=S(=O)(Nc1ccc(Nc2cc(-c3ccc4c(ccn4CCCN4CCCC4)c3)ncn2)cc1)c1c(F)cccc1F [Example 143, 2,6-Difluoro-N-(4-{6-[1-(3-pyrrolidin-1-yl-propyl)-1H-indol-5-yl]-pyrimidin-4-ylamino}-phenyl)-benzenesulfonamide formic acid salt]

IC50 (PKCε): 4 to 21 µM
IC50 (PKA): 3 to 16 µM
SMILES: Cc1csc(-c2cc(Nc3ccc(NS(=O)(=O)c4c(F)cccc4F)cc3)ncn2)c1 [Example 117, 2,6-Difluoro-N-{4-[6-(4-methyl-thiophen-2-yl)-pyrimidin-4-ylamino]-phenyl}-benzenesulfonamide]

IC50 (PKCζ): 15 to 25 µM
SMILES: CCN(CC)CCCn1cc(-c2cc(Nc3ccc(NS(=O)(=O)c4ccc(F)cc4F)cc3)ncn2)c2ccccc21 [Example 175, N-(4-{6-[1-(3-Diethylamino-propyl)-1H-indol-3-yl]-pyrimidin-4-ylamino}-phenyl)-2,4-difluoro-benzenesulfonamide formic acid salt]

IC50 (PKCι): 7 to 34 µM
SMILES: COc1ccc(S(=O)(=O)Nc2ccc(Nc3cc(-c4ccc5c(ccn5CCCN5CCCC5)c4)ncn3)cc2)cc1 [Example 145, 4-Methoxy-N-(4-{6-[1-(3-pyrrolidin-1-yl-propyl)-1H-indol-5-yl]-pyrimidin-4-ylamino}-phenyl)-benzenesulfonamide formic acid salt]

IC50 (Lck): < 3 µM
SMILES: COc1ccc(S(=O)(=O)Nc2ccc(Nc3cc(-c4ccc5c(ccn5CCCN(C)C)c4)ncn3)cc2)cc1 [Example 131, N-(4-[6-[1-(3-Dimethylamino-propyl)-1H-indol-5-yl]pyrimidin-4-ylamino]phenyl)-4-methoxy-benzenesulfonamide]

From patent US20080242681A1, “N-4-(6-(Hetero)Aryl-Pyrimidin-4-Ylaminophenyl)-Benzenesulfonamides as Kinase Inhibitors” (Altana Pharma AG, priority 2004, published 2008)
